Measured values from patent US10947284B2, “Fusion molecules” (Pieris Pharmaceuticals GMBH, priority 2015, dated 2021).
Starred links: 1 amine or outer side, 2 acyl side, 3 side chain; linkers in the order of their positions; H or OH if unused. Non-standard residues stand in square brackets, D forms with d. Residues, ends and D or L forms follow the SMILES beside them. *: point of attachment. X1 = O=C([C@@H]1CCNc2c(N[*:1])cc3cc(O)c(O)cc3[n+]21)[*:2]; dOrn(N5-OH,N5-CHO) = N[C@H](CCCN(O)C=O)C(=O)O; d(aThr) = C[C@@H](O)[C@@H](N)C(=O)O; Suc = O=C(CCC(=O)[*:2])[*:1]; X2 = O=C1[C@@H](N*)CCCN1[O-]; Orn = NCCC[C@H](N)C(=O)O

Columns and labels:
[1] = target: lipocalin negative control SEQ ID NO: 64 (Homo sapiens, UniProt P80188, C107S/Q48H); assay: Surface plasmon resonance (Biacore T200); format: binding
Chain of lipocalin negative control SEQ ID NO: 64 (P80188 21-198 Q48H/C107S): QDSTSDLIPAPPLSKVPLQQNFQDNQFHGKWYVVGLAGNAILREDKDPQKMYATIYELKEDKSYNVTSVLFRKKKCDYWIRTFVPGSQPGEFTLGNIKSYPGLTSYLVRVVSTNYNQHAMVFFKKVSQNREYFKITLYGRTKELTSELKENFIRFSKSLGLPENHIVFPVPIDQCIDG
Method: (§1) In a Surface Plasmon Resonance (SPR) based assay a Biacore T200 instrument (GE Healthcare) was used to measure the binding affinity of muteins to pyoverdine I succinyl, -succinamide, -α-ketoglutaryl with complexed iron ion or to pyoverdine II succinyl, -succinamide, -α-ketoglutaryl with complexed iron ion or to pyoverdine III succinyl, -succinamide, -α-ketoglutaryl with complexed iron ion. Muteins selected for binding to pyoverdines and negative control (SEQ ID NO: 64) were biotinylated for 2 h at room temperature applying an appropriate excess of EZ-Link NHS-PEG4-Biotin (Thermo, Cat #21329) followed by separation of non-reacted Biotin using a Zebra Spin Desalting Plate (Thermo, Cat #21329) according to the manufactures instructions.
(§2) In the SPR affinity assay, biotinylated muteins and negative control were captured on a sensor chip CAP using the Biotin CAPture Kit (GE Healthcare): Sensor Chip CAP is pre-immobilized with an ssDNA oligo. Undiluted Biotin CAPture Reagent (streptavidin conjugated with the complementary ss-DNA oligo) was applied at a flow rate of 2 μl/min for 300 s. Subsequently, 1 μg/ml to 100 μg/mL of biotinylated muteins or negative control were applied for 300 s at a flow rate of 5 μl/min. The reference channel was loaded with Biotin CAPture Reagent only.
(§3) Applying a flow rate of 30 μl/min, a single cycle or multi cycle kinetics approach was used with a sample contact time of 120-180 s and a dissociation time of 900-2400 s. […] After ligand immobilization, for analysis using single cycle kinetics all 4-5 concentrations of Pvd were applied consecutively in ascending order before the dissociation was monitored. For analysis using multi cycle kinetics 4 dilutions of Pvd were applied, each followed a dissociation phase. All measurements were performed at 25° C. […] Data were evaluated with Biacore T200 Evaluation software (V 1.0). Double referencing was used. A 1:1 Binding model was used to fit the raw data.
(§4) Subsequently, 5 μg/mL of mutein or the negative control solution in 10 mM acetate pH 4.0 was applied at a flow rate of 10 μl/min until a high immobilization level of approximately 2000 RU was achieved. Residual activated groups were quenched with ethanolamine. The reference channels were treated with EDC/NHS following ethanolamine (blank immobilization).
In the SPR affinity assay, biotinylated muteins and negative control were captured on a sensor chip CAP using the Biotin CAPture Kit (GE Healthcare), wherein the Sensor Chip CAP is pre-immobilized with an ssDNA oligo. Undiluted Biotin CAPture Reagent (streptavidin conjugated with the complementary ss-DNA oligo) was applied at a flow rate of 2 μl/min for 300 s. Subsequently, 20 μg/ml to 100 μg/mL of biotinylated muteins or fusion molecule negative control were applied for 300 s at a flow rate of 5 μl/min. The reference channel was loaded with Biotin CAPture Reagent only. To determine the binding affinity, four dilutions of the respective Pvd were prepared in HBS-EP+ buffer (GE Healthcare) and applied to the chip surface. Applying a flow rate of 30 μl/min, a single cycle kinetics approach was used with a sample contact time of 180 s and a dissociation time of 1800-2400 s. […] After ligand immobilization, the four concentrations of Pvd were applied consecutively in ascending order before the dissociation was monitored. All measurements were performed at 25° C. […] Data were evaluated with Biacore T200 Evaluation software (V 1.0). Double referencing was preformed. A 1:1 binding model was used to fit the raw data.

[2] = target: hNGAL (human lipocalin 2), wild type, SEQ ID NO: 1 (Homo sapiens, UniProt P80188); conditions: cited from earlier work
Chain of hNGAL (human lipocalin 2), wild type, SEQ ID NO: 1 (P80188 21-198): as the sequence (P80188 21-198 Q48H/C107S) above, with H28Q, S87C counted along it

[3] = target: T1, Fusion molecule SEQ ID NO: 134 (hNGAL muteins SEQ ID NOs: 36, 16, 53 and 62) (Homo sapiens, UniProt P80188, A60T/C107S/D97H, form not given/K145I/K154W/K93R/L123T/L56V/L90R/N85D/Q69G/R101D/R92I/S147R/S88D/T74A/W99Y/Y126Q/Y152I/Y72N); assay: Surface plasmon resonance (Biacore T200); format: binding; conditions: for binding: SPR
T1 construct: made in house; host or cells: HEK293
T1 sequence (P80188 with tags, fused parts or gaps with the stated changes, form open): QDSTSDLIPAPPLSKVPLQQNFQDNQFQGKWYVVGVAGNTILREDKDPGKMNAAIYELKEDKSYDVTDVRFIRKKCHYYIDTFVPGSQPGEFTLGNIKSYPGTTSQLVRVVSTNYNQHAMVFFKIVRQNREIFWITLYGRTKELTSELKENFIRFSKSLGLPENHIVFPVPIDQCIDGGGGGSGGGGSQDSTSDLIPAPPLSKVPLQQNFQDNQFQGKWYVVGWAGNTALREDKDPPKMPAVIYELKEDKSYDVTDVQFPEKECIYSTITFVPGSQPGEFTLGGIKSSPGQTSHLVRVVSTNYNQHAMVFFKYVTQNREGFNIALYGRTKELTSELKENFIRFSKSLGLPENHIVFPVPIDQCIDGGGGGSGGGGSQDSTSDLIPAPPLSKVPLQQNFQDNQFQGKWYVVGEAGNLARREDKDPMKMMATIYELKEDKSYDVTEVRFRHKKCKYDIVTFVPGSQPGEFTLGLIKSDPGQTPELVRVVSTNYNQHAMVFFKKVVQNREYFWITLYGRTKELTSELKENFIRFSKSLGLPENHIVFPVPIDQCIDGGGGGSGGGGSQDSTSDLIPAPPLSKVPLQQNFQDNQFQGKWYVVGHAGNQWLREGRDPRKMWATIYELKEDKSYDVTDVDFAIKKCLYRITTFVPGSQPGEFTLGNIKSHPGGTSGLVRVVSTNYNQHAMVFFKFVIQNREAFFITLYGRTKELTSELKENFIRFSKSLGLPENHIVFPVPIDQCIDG

[4] = target: T2, hNGAL (human lipocalin 2, parent wild type SEQ ID NO: 1) mutein SEQ ID NO: 39 (Homo sapiens, UniProt P80188, A60R/C107S/D97A/I61W/K145T/K154E/K93L/L123P/L56F/L90N/N116R/Q48H/Q69I/R101S/R92W/S147I/S88Q/W99S/Y120I/Y126E/Y152F); conditions: solution binding ELISA
T2 construct: made in house; host or cells: E. coli
T2 sequence (P80188 other isoform, or with tags, fused parts or gaps with the stated changes): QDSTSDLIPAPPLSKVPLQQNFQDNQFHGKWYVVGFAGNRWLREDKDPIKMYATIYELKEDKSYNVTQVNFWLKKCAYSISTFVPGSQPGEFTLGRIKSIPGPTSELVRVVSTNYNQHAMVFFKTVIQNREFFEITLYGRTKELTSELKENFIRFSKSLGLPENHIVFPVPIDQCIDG
Method: (§5) The concentration of free (non ligand-bound) muteins was determined via a quantitative ELISA setup.
(§6) In detail, a 384-well plate suitable for fluorescence measurements (Greiner FLUOTRAC™ 600, black flat bottom, high-binding) was coated with 20 μl of Neutravidin at a concentration of 5 μg/ml in PBS overnight at 4 C. After washing, the Neutravidin-coated wells were blocked with 100 μl blocking buffer containing 0.1% Tween 20 and 2% BSA (PBS-T/BSA) for 1 h at room temperature.
(§7) The residual supernatants were discarded and 20 μl HRP-labeled anti-hNGAL antibody was added at a predetermined optimal concentration in PBS-T/BSA and incubated for 1 h at RT. […] After washing, 20 μl fluorogenic HRP substrate (QuantaBlu, Thermo) was added to each well, and the reaction was allowed to proceed for 15 to 60 minutes. The fluorescence intensity of every well on the plate was read using a fluorescence microplate reader (Tecan or Molecular Devices). […] Curve fitting was performed using GraphPad Prism 4 software.

[5] = target: T3, hNGAL (human lipocalin 2, parent wild type SEQ ID NO: 1) mutein SEQ ID NO: 42 (Homo sapiens, UniProt P80188, A60L/C107S/D97Q/I61A/K154W/K93H/L123Q/L56E/L90R/N116L/Q48H/Q69K/R101A/S147V/S88E/W99D/Y120D/Y126E/Y152F/Y72M); assay: Solution binding ELISA
T3 construct: made in house; host or cells: E. coli
T3 sequence (P80188 other isoform, or with tags, fused parts or gaps with the stated changes): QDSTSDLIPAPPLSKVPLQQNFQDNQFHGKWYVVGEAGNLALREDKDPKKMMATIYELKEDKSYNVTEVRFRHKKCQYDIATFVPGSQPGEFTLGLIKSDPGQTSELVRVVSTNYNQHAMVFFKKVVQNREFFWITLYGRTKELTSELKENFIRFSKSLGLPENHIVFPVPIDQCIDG
Method: as §5, §6, §7

[6] = target: T4, hNGAL (human lipocalin 2, parent wild type SEQ ID NO: 1) mutein SEQ ID NO: 43 (Homo sapiens, UniProt P80188, A60L/C107S/D97K/I61A/K154W/K93Q/L123Q/L56E/L90R/N116L/Q48H/Q69M/R101V/S147V/S88E/W99D/Y120D/Y126E/Y72M); assay: Solution binding ELISA
T4 construct: made in house; host or cells: E. coli
T4 sequence (P80188 other isoform, or with tags, fused parts or gaps with the stated changes): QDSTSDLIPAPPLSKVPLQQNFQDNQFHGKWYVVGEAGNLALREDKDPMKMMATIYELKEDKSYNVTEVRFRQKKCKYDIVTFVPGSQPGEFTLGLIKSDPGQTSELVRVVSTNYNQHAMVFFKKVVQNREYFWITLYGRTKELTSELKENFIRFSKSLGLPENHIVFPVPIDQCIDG
Method: as §5, §6, §7

[7] = target: T5, hNGAL (human lipocalin 2, parent wild type SEQ ID NO: 1) mutein SEQ ID NO: 44 (Homo sapiens, UniProt P80188, A60L/C107S/D97K/I61T/K154W/K93R/L123Q/L56E/L90R/N116V/Q48H/Q69M/R101V/S147V/S88E/W99D/Y120D/Y126E/Y72M); assay: Solution binding ELISA
T5 construct: made in house; host or cells: E. coli
T5 sequence (P80188 other isoform, or with tags, fused parts or gaps with the stated changes): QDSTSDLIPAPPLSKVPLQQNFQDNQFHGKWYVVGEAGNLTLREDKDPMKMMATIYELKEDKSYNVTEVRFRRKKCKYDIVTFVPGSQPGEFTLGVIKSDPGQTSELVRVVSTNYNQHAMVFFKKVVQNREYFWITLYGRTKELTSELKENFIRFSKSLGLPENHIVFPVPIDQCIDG
Method: as §5, §6, §7

[8] = target: T6, hNGAL (human lipocalin 2, parent wild type SEQ ID NO: 1) mutein SEQ ID NO: 45 (Homo sapiens, UniProt P80188, A60L/C107S/D97K/I61A/K154W/K93H/L123Q/L56E/L90R/N116L/Q48H/Q69M/R101V/S147V/S88E/W99D/Y120D/Y126E/Y72M); assay: Solution binding ELISA
T6 construct: made in house; host or cells: E. coli
T6 sequence (P80188 other isoform, or with tags, fused parts or gaps with the stated changes): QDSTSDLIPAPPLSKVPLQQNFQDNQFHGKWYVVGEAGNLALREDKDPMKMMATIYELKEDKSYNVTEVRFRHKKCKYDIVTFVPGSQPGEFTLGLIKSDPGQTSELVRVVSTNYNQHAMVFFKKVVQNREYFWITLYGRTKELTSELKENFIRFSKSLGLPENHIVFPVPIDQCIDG
Method: as §5, §6, §7

[9] = target: T7, hNGAL (human lipocalin 2, parent wild type SEQ ID NO: 1) mutein SEQ ID NO: 46 (deletion of G-N-I-K, positions 95-98) (Homo sapiens, UniProt P80188, A60L/C107S/D97Q/DEL115-118/I61A/K154W/K93Y/L123Q/L56E/L90R/Q48H/Q69K/R101V/S147V/S88E/W99D/Y120E/Y126E/Y152F/Y72M); assay: Solution binding ELISA
T7 construct: made in house; host or cells: E. coli
T7 sequence (P80188 other isoform, or with tags, fused parts or gaps with the stated changes): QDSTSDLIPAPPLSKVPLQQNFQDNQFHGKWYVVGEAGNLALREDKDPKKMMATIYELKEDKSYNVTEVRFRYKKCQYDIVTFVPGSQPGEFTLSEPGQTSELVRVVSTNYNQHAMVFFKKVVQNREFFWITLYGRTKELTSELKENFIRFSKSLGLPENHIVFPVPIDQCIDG
Method: as §5, §6, §7

[10] = target: T8, hNGAL (human lipocalin 2, parent wild type SEQ ID NO: 1) mutein SEQ ID NO: 47 (Homo sapiens, UniProt P80188, A60L/C107S/D97K/I61A/K154W/K93H/L123Q/L56E/L62R/L90R/N116L/Q48H/Q69M/R101V/S125P/S147V/S88E/W99D/Y120D/Y126E/Y72M); assay: Solution binding ELISA
T8 construct: made in house; host or cells: E. coli
T8 sequence (P80188 other isoform, or with tags, fused parts or gaps with the stated changes): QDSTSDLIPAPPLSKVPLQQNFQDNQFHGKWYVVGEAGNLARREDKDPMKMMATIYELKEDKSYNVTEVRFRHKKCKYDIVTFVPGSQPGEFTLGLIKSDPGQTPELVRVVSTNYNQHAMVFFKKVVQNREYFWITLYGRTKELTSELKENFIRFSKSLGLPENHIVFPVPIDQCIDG
Method: as §5, §6, §7

[11] = target: T9, hNGAL (human lipocalin 2, parent wild type SEQ ID NO: 1) mutein SEQ ID NO: 48 (Homo sapiens, UniProt P80188, A60L/C107S/D67N/D97K/I61A/K154W/K93H/L123Q/L56E/L90R/N116L/Q48H/Q69M/R101V/S125P/S147V/S88E/T165P/W99D/Y120D/Y126E/Y72M); assay: Solution binding ELISA
T9 construct: made in house; host or cells: E. coli
T9 sequence (P80188 other isoform, or with tags, fused parts or gaps with the stated changes): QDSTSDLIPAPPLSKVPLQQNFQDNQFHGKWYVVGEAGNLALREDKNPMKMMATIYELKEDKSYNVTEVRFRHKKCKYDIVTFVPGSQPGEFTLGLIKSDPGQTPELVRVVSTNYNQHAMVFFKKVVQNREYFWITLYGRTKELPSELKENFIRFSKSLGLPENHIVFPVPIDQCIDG
Method: as §5, §6, §7

[12] = target: T10, hNGAL (human lipocalin 2, parent wild type SEQ ID NO: 1) mutein SEQ ID NO: 50 (Homo sapiens, UniProt P80188, A60L/C107S/D97K/I61A/K154W/K93H/L123Q/L56E/L62R/L90R/N116L/N85D/Q48H/Q69M/R101V/S125P/S147V/S88E/W99D/Y120D/Y126E/Y72M); assay: Solution binding ELISA; conditions: Example 5
T10 construct: made in house; host or cells: E. coli
T10 sequence (P80188 other isoform, or with tags, fused parts or gaps with the stated changes): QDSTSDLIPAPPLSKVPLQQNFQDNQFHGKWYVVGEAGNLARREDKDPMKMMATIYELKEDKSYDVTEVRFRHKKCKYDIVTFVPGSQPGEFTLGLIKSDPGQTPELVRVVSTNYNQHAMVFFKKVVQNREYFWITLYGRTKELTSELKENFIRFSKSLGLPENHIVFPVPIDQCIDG
Method: as §5, §6, §7

[13] = target: T11, hNGAL (human lipocalin 2, parent wild type SEQ ID NO: 1) mutein SEQ ID NO: 53 (Homo sapiens, UniProt P80188, A60L/C107S/D97K/I61A/K154W/K93H/L123Q/L56E/L62R/L90R/N116L/N85D/Q69M/R101V/S125P/S147V/S88E/W99D/Y120D/Y126E/Y72M); assay: Solution binding ELISA; conditions: Example 5
T11 construct: made in house; host or cells: E. coli
T11 sequence (P80188 21-198 with the stated changes): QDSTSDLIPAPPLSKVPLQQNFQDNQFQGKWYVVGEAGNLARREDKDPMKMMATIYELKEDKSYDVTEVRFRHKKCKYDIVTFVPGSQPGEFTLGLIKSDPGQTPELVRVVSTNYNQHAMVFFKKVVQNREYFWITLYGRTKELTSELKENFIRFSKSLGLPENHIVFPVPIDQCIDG
Method: as §5, §6, §7
The concentration of free (non ligand-bound) mutein or fusion molecule construct was determined via a quantitative ELISA setup.
In detail, a 384-well plate suitable for fluorescence measurements (Greiner FLUOTRAC™ 600, black flat bottom, high-binding) was coated with 20 μl of Neutravidin at a concentration of 5 μg/ml in PBS overnight at 4° C. After washing, the Neutravidin-coated wells were blocked with 100 μl blocking buffer containing 0.1% Tween 20 and 2% BSA (PBS-T/BSA) for 1 h at room temperature.
The residual supernatants were discarded and 20 μl HRP-labeled anti-hNGAL antibody was added at a predetermined optimal concentration in PBS-T/BSA and incubated for 1 h at RT. […] After washing, 20 μl fluorogenic HRP substrate (QuantaBlu, Thermo) was added to each well, and the reaction was allowed to proceed for 15 to 60 minutes. The fluorescence intensity of every well on the plate was read using a fluorescence microplate reader (Tecan or Molecular Devices). […] IC50 values were fitted by nonlinear regression with a single-sites binding model. Curve fitting was performed using GraphPad Prism 4 software.

[14] = target: T12, Fusion molecule SEQ ID NO: 134 (hNGAL muteins SEQ ID NOs: 36, 16, 53 and 62) (Homo sapiens, UniProt P80188, A60T/C107S/D97H, form not given/K145I/K154W/K93R/L123T/L56V/L90R/N85D/Q69G/R101D/R92I/S147R/S88D/T74A/W99Y/Y126Q/Y152I/Y72N); assay: Solution binding ELISA; conditions: binding to target in solution, tracer 0.1 nM, Table 11
T12 construct: made in house
T12 sequence (P80188 with tags, fused parts or gaps with the stated changes, form open): as the sequence (P80188 with tags, fused parts or gaps with the stated changes, form open) above

[15] = target: T11, hNGAL (human lipocalin 2, parent wild type SEQ ID NO: 1) mutein SEQ ID NO: 53; assay: Surface plasmon resonance (Biacore T200); format: binding; conditions: SPR, 25° C., Table 2C
Method: as §1, §2, §3
In a surface plasmon resonance (SPR) based assay, a Biacore T200 instrument (GE Healthcare) was used to measure the binding affinity of individual muteins or fusion molecules to pyoverdine siderophores (to pyoverdine I succinyl, -succinamide, -α-ketoglutaryl with complexed iron ion or to pyoverdine II succinyl, -succinamide, -α-ketoglutaryl with complexed iron ion or to pyoverdine III succinyl, -succinamide, -α-ketoglutaryl with complexed iron ion). To this end, muteins selected for binding to pyoverdines (SEQ ID NOs: 16, 36, 53), a fusion molecule (SEQ ID NO: 134) and a negative control (SEQ ID NO: 64) were biotinylated for 2 h at room temperature applying an appropriate excess of EZ-Link NHS-PEG4-Biotin (Thermo, Cat #21329) followed by separation of non-reacted biotin using a Zebra Spin Desalting Plate (Thermo, Cat #21329) according to the manufacturer's instructions.
In the SPR affinity assay, biotinylated muteins and negative control were captured on a sensor chip CAP using the Biotin CAPture Kit (GE Healthcare), wherein the Sensor Chip CAP is pre-immobilized with an ssDNA oligo. Undiluted Biotin CAPture Reagent (streptavidin conjugated with the complementary ss-DNA oligo) was applied at a flow rate of 2 μl/min for 300 s. Subsequently, 20 μg/ml to 100 μg/mL of biotinylated muteins or fusion molecule negative control were applied for 300 s at a flow rate of 5 μl/min. The reference channel was loaded with Biotin CAPture Reagent only. To determine the binding affinity, four dilutions of the respective Pvd were prepared in HBS-EP+ buffer (GE Healthcare) and applied to the chip surface. Applying a flow rate of 30 μl/min, a single cycle kinetics approach was used with a sample contact time of 180 s and a dissociation time of 1800-2400 s. […] After ligand immobilization, the four concentrations of Pvd were applied consecutively in ascending order before the dissociation was monitored. All measurements were performed at 25° C. […] Data were evaluated with Biacore T200 Evaluation software (V 1.0). Double referencing was preformed.

[16] = target: T13, hNGAL (human lipocalin 2, parent wild type SEQ ID NO: 1) mutein SEQ ID NO: 62 (Homo sapiens, UniProt P80188, A60Q/C107S/D65G/D97L/I61W/K145F/K154F/K66R/K93I/L123G/L56H/L90D/N85D/Q69R/R101T/R92A/S147I/S88D/W99R/Y120H/Y126G/Y152A/Y72W); assay: Surface plasmon resonance (Biacore T200), CM5 chip; format: binding; conditions: SPR, high concentrations (≥1 μM)
T13 construct: made in house
T13 sequence (P80188 21-198 with the stated changes): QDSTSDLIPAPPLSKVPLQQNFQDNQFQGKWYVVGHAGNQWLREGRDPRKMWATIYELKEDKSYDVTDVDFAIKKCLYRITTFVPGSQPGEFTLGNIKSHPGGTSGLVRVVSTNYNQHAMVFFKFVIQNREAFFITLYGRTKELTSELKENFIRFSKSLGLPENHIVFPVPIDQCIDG
Method: as §4
The binding assay was carried out with a contact time of 180 s, dissociation times of 1200-1800 s and applying a flow rate of 30 μl/min. Measurements were performed at 25° C. Regeneration of the immobilized mutein surface was achieved by three consecutive injections of 10 mM Gly-HCl pH 1.5 (120 s) followed by an extra wash with running buffer and a stabilization period. Data were evaluated with Biacore T200 Evaluation software (V 1.0). Double referencing was used. The 1:1 Binding model was used to fit the raw data.
Subsequently, 5 μg/mL of mutein or the negative control solution in 10 mM acetate pH 4.0 was applied at a flow rate of 10 μl/min until a high immobilization level of approximately 2000 RU was achieved. Residual activated groups were quenched with ethanolamine. The reference channels were treated with EDC/NHS following ethanolamine (blank immobilization). […] The binding assay was carried out with a contact time of 180 s, dissociation times of 1500-1800 s and applying a flow rate of 30 μl/min. Measurements were performed at 25° C. Regeneration of the immobilized mutein surface was achieved by three consecutive injections of 10 mM Gly-HCl pH 1.5 (120 s) followed by an extra wash with running buffer and a stabilization period. Data were evaluated with Biacore T200 Evaluation software (V 1.0). Double referencing was used. The 1:1 Binding model was used to fit the raw data.

Compound | binding [2] | IC50 [4] [nM] | IC50 [5] [nM] | IC50 [6] [nM] | IC50 [7] [nM] | IC50 [8] [nM] | IC50 [9] [nM] | IC50 [10] [nM] | IC50 [11] [nM] | IC50 [12] [nM] | IC50 [13] [nM] | IC50 [14] [nM] | Kd ([3]; Biacore, 25° C., Table 13) [nM] | also measured
NC(=O)CC[C@H](NC(=O)[C@H](CCCN([O-])C=O)NC(=O)[C@@H]1CCN=C([C@@H](CO)NC(=O)[C@@H]2CCNc3c(NC(=O)CCC(=O)O)cc4cc([O-])c([O-])cc4[n+]32)N1)C(=O)N[C@H](CCC(N)=O)C(=O)N[C@H](CCCN([O-])C=O)C(=O)NCC(=O)O.[Fe+3] [Pvd III s (+Fe), Pvd type III succinyl] | – | – | – | – | – | – | – | – | – | – | – | – | – | binding ([1]; SPR, analyte at 1200 nM): absence of binding
O=C(N[C@H]1COC(=O)[C@@H](NC(=O)c2cccc(O)c2O)COC(=O)[C@@H](NC(=O)c2cccc(O)c2O)COC1=O)c1cccc(O)c1O.[Fe+3] [enterobactin] | high affinity | – | – | – | – | – | – | – | – | – | – | – | – | –
CN1[C@@H]([C@H]2CSC(c3ccccc3O)=N2)SC[C@H]1C(=O)O [pyochelin] | does not bind | – | – | – | – | – | – | – | – | – | – | – | – | binding ([1]; Biacore, Example 18): did not show binding; binding ([3]; His-tagged fusion captured via Ni-NTA): clearly detectable
NC(=O)CCC(=O)Nc1cc2cc([O-])c([O-])cc2[n+]2c1NCC[C@H]2C(=O)N[C@H](CO)C1=NCC[C@@H](C(=O)N[C@@H](CCCN([O-])C=O)C(=O)N[C@@H](CCC(N)=O)C(=O)N[C@H](CCC(N)=O)C(=O)N[C@H](CCCN([O-])C=O)C(=O)NCC(=O)O)N1.[Fe+3] [Pvd III sa (+Fe), Pvd type III succinamide] | – | 147 | 15 | 0.25 | 0.26 | 0.43 | 0.3 | 0.3 | 0.22 | 0.35 | 0.25 | 0.31 | 0.27 | Kd [15]: 0.58 nM; koff [15]: 3.9e-05 s⁻¹; kon [15]: 67300 M⁻¹ s⁻¹
NC(=O)CC[C@H](NC(=O)[C@H](CCCN([O-])C=O)NC(=O)[C@@H]1CCN=C([C@@H](CO)NC(=O)[C@@H]2CCNc3c(NC(=O)C(=O)CCC(=O)O)cc4cc([O-])c([O-])cc4[n+]32)N1)C(=O)N[C@H](CCC(N)=O)C(=O)N[C@H](CCCN([O-])C=O)C(=O)NCC(=O)O.[Fe+3] [Pvd III aKG (+Fe), Pvd type III α-ketoglutaryl] | – | 23 | 78 | 1.4 | 0.93 | 1.5 | 1.02 | 0.82 | 0.95 | 0.95 | 0.54 | 0.58 | 1.04 | Kd [15]: 3.6 nM; koff [15]: 0.00014 s⁻¹; kon [15]: 38800 M⁻¹ s⁻¹
pyoverdine | does not bind | – | – | – | – | – | – | – | – | – | – | – | – | binding [16]: absence of binding; binding ([1]; Biacore, Example 18): did not show binding
NC(=O)CCC(=O)Nc1cc2cc(O)c(O)cc2[n+]2c1NCC[C@H]2C(=O)N[C@H](CO)C1=NCC[C@@H](C(=O)N[C@@H](CCCN(O)C=O)C(=O)N[C@@H](CCC(N)=O)C(=O)N[C@H](CCC(N)=O)C(=O)N[C@H](CCCN(O)C=O)C(=O)NCC(=O)O)N1 [Pvd III sa (−Fe), Pvd type III succinamide] | – | 94 | 7.2 | 0.46 | 0.21 | 0.46 | 0.3 | 0.28 | 0.24 | 0.37 | 0.63 | 0.27 | 1.65 | –
C[C@@H](O)[C@@H](NC(=O)CNC(=O)[C@H](CCCN)NC(=O)[C@@H](CCCN([O-])C=O)NC(=O)[C@@H](CO)NC(=O)[C@@H]1CCNc2c(NC(=O)CCC(=O)O)cc3cc([O-])c([O-])cc3[n+]21)C(=O)N[C@@H](CO)C(=O)N[C@H]1CCCN([O-])C1=O.[Fe+3] [Pvd II s (+Fe), Pvd type II succinyl] (Suc-[X1][dS][dOrn(N5-OH,N5-CHO)][Orn]G[d(aThr)]S-X2) | – | – | – | – | – | – | – | – | – | – | – | – | – | binding ([1]; SPR, analyte at 1200 nM): absence of binding
CC(=O)N(O)CCCCCNC(=O)CCC(=O)N(O)CCCCCNC(=O)CCC(=O)N(O)CCCCCN [Desferoxamin, desferoxamine] | – | – | – | – | – | – | – | – | – | – | – | – | – | binding [16]: absence of binding; KD ([3]; Biacore, 25° C., Table 13): no bdg; binding ([3]; high concentrations (≥1 μM)): absence of binding
NC(=O)CC[C@H](NC(=O)[C@H](CCCN(O)C=O)NC(=O)[C@@H]1CCN=C([C@@H](CO)NC(=O)[C@@H]2CCNc3c(NC(=O)C(=O)CCC(=O)O)cc4cc(O)c(O)cc4[n+]32)N1)C(=O)N[C@H](CCC(N)=O)C(=O)N[C@H](CCCN(O)C=O)C(=O)NCC(=O)O [Pvd III aKG (−Fe), Pvd type III α-ketoglutaryl] | – | 23 | 69 | 1.9 | 1.1 | 1.7 | 1.2 | 0.58 | 0.64 | 0.82 | 0.33 | 0.7 | 18.7 | –
